According to patent publication US10882856B2 (BeiGene, Ltd., priority 2017, dated 2021):

Key:
[1] = target: T1, TDO (Homo sapiens, UniProt P48775); assay: TDO enzymatic assay; type: biochemical; details: read-out: Enzyme IC50 TDO
T1 construct: His tag (C); made in house; host or cells: E. coli
Summary of the method: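 Recombinant C-terminally His-tagged TDO purified from E. coli (100 nM) was tested with 0.5 mM L-tryptophan (Km concentration). Otherwise the IDO1 enzymatic set-up was used: ascorbic acid, methylene blue, catalase, and potassium phosphate pH 7.5 with BSA, incubated 1.5 hours. N'-formylkynurenine absorbance was read continuously at 321 nm, and activity was taken as the slope. IC50 was calculated from remaining enzyme activity across increasing compound concentrations.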

[2] = target: T2, IDO1 (Homo sapiens, UniProt P14902); assay: Hela cell-based IDO1 assay; details: Hela cells
Summary of the method: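 HeLa cells were seeded at 8000 per well in 96-well plates in phenol red-free DMEM with 10% FBS. After 4 hours, DMSO-diluted compound dilutions were added with IFN-γ (final 100 ng/mL) and 0.4 mM L-Trp, and cells were kept 48 hours at 37 °C, 5% CO2. Supernatant was deproteinised with trichloroacetic acid, and kynurenine was measured at 480 nm after adding 2% 4-(dimethylamino)benzaldehyde. Potency came from four-parameter logistic fits in XLfit.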

[3] = target: T3, cellular TDO2 in HEK293-TDO2 cells (Homo sapiens, UniProt P48775); assay: 293-TDO2 cell-based assay (Kyn colorimetric); details: 48 hours of incubation
T3 construct: expressed in transfected cells; host or cells: HEK293 (ATCC), stably transfected
Summary of the method: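 Kyn formed from L-Trp was read colorimetrically at 480 nm (TCA deproteinisation, then 2% 4-(dimethylamino)benzaldehyde). Compounds were added to 293-TDO2 cells 4 h post-seeding and left 48 h at 37° C. A four-parameter logistic model gave IC50 values.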

[4] = target: T2, IDO1; assay: IDO1 enzymatic assay; type: biochemical; parameters: His tag (N); made in house; host or cells: E. coli; details: read-out: Enzyme IC50 IDO1
Summary of the method: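 Recombinant N-terminally His-tagged IDO1 purified from E. coli (50 nM) was incubated with compound or DMSO and 1.3 mM D-tryptophan, 5 mM L-ascorbic acid, methylene blue and 0.4 mg/mL catalase. The buffer was 50 mM potassium phosphate pH 7.5 with 0.1% BSA, at 24 °C for 1.5 hours. N'-formylkynurenine formation was then read continuously at 321 nm for 1 hour, and activity was taken as the slope. IC50 was calculated from remaining enzyme activity across increasing compound concentrations.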

T3 sequence (P48775 whole entry): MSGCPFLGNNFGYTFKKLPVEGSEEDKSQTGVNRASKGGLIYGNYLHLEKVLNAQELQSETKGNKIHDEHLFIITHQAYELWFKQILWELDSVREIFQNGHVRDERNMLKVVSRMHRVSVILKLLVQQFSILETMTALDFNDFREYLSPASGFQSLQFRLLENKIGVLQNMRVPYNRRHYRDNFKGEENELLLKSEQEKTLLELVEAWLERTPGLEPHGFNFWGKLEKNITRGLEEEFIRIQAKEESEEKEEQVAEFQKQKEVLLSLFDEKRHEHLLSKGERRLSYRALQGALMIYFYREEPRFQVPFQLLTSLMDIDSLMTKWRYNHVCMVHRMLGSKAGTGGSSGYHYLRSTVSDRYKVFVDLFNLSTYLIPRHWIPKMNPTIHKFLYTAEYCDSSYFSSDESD
T1 sequence (P48775 whole entry): as above
T2 sequence (P14902 whole entry): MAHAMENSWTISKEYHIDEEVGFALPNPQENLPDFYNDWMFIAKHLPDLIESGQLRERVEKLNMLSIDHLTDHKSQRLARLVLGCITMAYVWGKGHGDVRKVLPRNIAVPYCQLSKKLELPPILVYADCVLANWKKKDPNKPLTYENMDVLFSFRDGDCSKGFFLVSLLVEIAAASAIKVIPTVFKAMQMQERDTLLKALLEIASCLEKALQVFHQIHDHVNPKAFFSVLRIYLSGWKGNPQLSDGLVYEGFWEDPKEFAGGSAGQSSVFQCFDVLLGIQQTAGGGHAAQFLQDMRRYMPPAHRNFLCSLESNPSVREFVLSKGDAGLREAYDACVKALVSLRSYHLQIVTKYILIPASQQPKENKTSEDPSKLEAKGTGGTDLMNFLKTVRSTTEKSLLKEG

SMILES	IC50 [1] [µM]	EC50 [2] [nM]	EC50 [3] [µM]	IC50 [4] [nM]
O[C@H](c1c(C2CC2)ccn2cncc12)[C@H]1CC[C@H](c2ccc(Cl)cc2)CC1 (single isomer, unassigned) [Example C102a]	16	471	> 10	36
COCCOc1ccc([C@H]2CC[C@H]([C@H](O)c3c(C4CC4)ccn4cncc34)CC2)cc1 (single isomer, unassigned) [Example C103a]	10	167	> 10	21
Oc1ccc([C@H]2CC[C@H](C(O)c3c(C4CC4)ccn4cncc34)CC2)cc1 (single isomer, unassigned) [Example C104a]	2.5	50	> 10	18
O[C@H](c1c(C2CC2)ccn2cncc12)[C@H]1CC[C@H](c2ccc(OC(F)(F)F)cc2)CC1 (single isomer, unassigned) [Example C105a]	9.1	1140	> 10	48
N#Cc1ccc([C@H]2CC[C@H](C(O)c3c(C4CC4)ccn4cncc34)CC2)cc1 (single isomer, unassigned) [Example C106a]	5.2	141	> 10	20
O[C@H](c1c(C2CC2)ccn2cncc12)[C@H]1CC[C@H](c2ccc(F)cc2)CC1 (single isomer, unassigned) [Example C107a]	6.5	109	> 10	31
OC(c1c(C2CC2)ccc2cncn12)C1CCC(c2ccc(F)c3ncccc23)CC1 (stereo not drawn) [Example D163, (6-cyclopropylimidazo[1,5-a]pyridin-5-yl)(4-(8-fluoroquinolin-5-yl)cyclohexyl)methanol]	–	48	> 10	40
OC(c1c(C2CC2)ccc2cncn12)C1CCC(c2ccnc3c(F)cccc23)CC1 (stereo not drawn) [Example D164, (6-cyclopropylimidazo[1,5-a]pyridin-5-yl)(4-(8-fluoroquinolin-4-yl)cyclohexyl)methanol]	–	51	> 10	33
NS(=O)(=O)Nc1ccc([C@H]2CC[C@H]([C@H](O)c3c(C4CC4)ccc4cncn34)CC2)cc1 [Example D165, 1-(4-((1 S,4r)-4-((S)-(6-cyclopropylimidazo[1,5-a]pyridin-5-yl)(hydroxy)methyl)cyclohexyl)phenyl) sulfuric diamide]	–	344	> 10	28
CC(C)c1ccc2cncn2c1C(O)C1CCC(c2ccc(F)cc2)CC1 (stereo not drawn) [Example D166, (4-(4-fluorophenyl)cyclohexyl)(6-isopropylimidazo[1,5-a]pyridin-5-yl)methanol]	–	29	> 10	41
CC(C)c1ccc2cncn2c1C(O)C1CCC(c2cccc(F)c2)CC1 (stereo not drawn) [Example D167, (4-(3-fluorophenyl)cyclohexyl)(6-isopropylimidazo[1,5-a]pyridin-5-yl)methanol]	–	40	> 10	69
CC(C)c1ccc2cncn2c1C(O)C1CCC(c2cccc(Cl)c2)CC1 (stereo not drawn) [Example D168, (4-(3-chlorophenyl)cyclohexyl)(6-isopropylimidazo[1,5-a]pyridin-5-yl)methanol]	–	42	> 10	38
COc1cccc(C2CCC(C(O)c3c(C(C)C)ccc4cncn34)CC2)c1 (stereo not drawn) [Example D169, (6-isopropylimidazo[1,5-a]pyridin-5-yl)(4-(3-methoxyphenyl)cyclohexyl)methanol]	–	22	> 10	28
OC(c1c(C2CC2)ccc2cncn12)C1CCN(c2ccccc2)CC1 (stereo not drawn) [Example D170, (6-cycloropylimidazo[1,5-a]pyridin-5-yl)(1-phenylpiperidin-4-yl)methanol]	–	43	> 10	21
OC(c1c(C2CC2)ccc2cncn12)C1CCN(c2ccc(F)cc2)CC1 (stereo not drawn) [Example D171, (6-cyclopropylimidazo[1,5-a]pyridin-5-yl)(1-(4-fluorophenyl)piperidin-4-yl)methanol]	–	36	> 10	22
OC(c1c(C2CC2)ccc2cncn12)C1CCN(c2cccc(F)c2)CC1 (stereo not drawn) [Example D172]	–	58	> 10	28

SMILES	IC50 [1] [µM]	EC50 [2] [nM]	EC50 [3] [µM]	IC50 [4] [nM]
O[C@H](c1c(C2CC2)ccc2cncn12)C1CCN(c2cccc(F)c2)CC1 [Example D172a]	–	23	> 10	14
O[C@@H](c1c(C2CC2)ccc2cncn12)C1CCN(c2cccc(F)c2)CC1 [Example D172b]	–	5400	> 10	2700
OC(c1c(C2CC2)ccc2cncn12)C1CCN(c2cccc(Cl)c2)CC1 (stereo not drawn) [Example D173, (1-(3-chlorophenyl)piperidin-4-yl)(6-cyclopropylimidazo[15-a]pyridin-5-yl)methanol]	–	65	> 10	30
OC(c1c(C2CC2)ccc2cncn12)C1CCN(c2ccc(Cl)cc2)CC1 (stereo not drawn) [Example D174, (1-(4-chlorophenyl)piperidin-4-yl)(6-cyclopropylimidazo[1,5-a]pyridin-5-yl)methanol]	–	167	> 10	38
OC(c1c(C2CC2)ccc2cncn12)C1CCN(c2ccc(F)c3ncccc23)CC1 (stereo not drawn) [Example D175, (6-cyclopropylimidazo[1,5-a]pyridin-5-yl)(1-(8-fluoroquinolin-5-yl)piperidin-4-yl)methanol]	–	21	> 10	22
Cn1cc(-c2ccc(N3CCC(C(O)c4c(C5CC5)ccc5cncn45)CC3)cc2)cn1 (stereo not drawn) [Example D176, (6-cyclopropylimidazo[1,5-a]pyridin-5-yl)(1-(4-(1-methyl-1H-pyrazol-4-yl)phenyl)piperidin-4-yl)methanol]	–	109	> 10	25
OCCn1cc(-c2ccc(N3CCC(C(O)c4c(C5CC5)ccc5cncn45)CC3)cc2)cn1 (stereo not drawn) [Example D177]	–	107	> 10	25
OC(c1c(C2CC2)ccc2cncn12)C1CCN(c2ccc(Cl)c3ncccc23)CC1 (stereo not drawn) [Example D178, (1-(8-chloroquinolin-5-yl)piperidin-4-yl)(6-cyclopropylimidazo[1,5-a]pyridin-5-yl)methanol]	–	40	> 10	24
OC(c1c(C2CC2)ccc2cncn12)C1CCN(c2ccc3nccc(Cl)c3c2)CC1 (stereo not drawn) [Example D179, (1-(4-chloroquinolin-6-yl)piperidin-4-yl)(6-cyclopropylimidazo[1,5-a]pyridin-5-yl)methanol]	–	187	> 10	26
OC(c1c(C2CC2)ccc2cncn12)C1CCN(c2cccc3ncncc23)CC1 (stereo not drawn) [Example D180, (6-cyclopropylimidazo[1,5-a]pyridin-5-yl)(1-(quinazolin-5-yl)piperidin-4-yl)methanol]	–	40	> 10	30
OC(c1c(C2CC2)ccc2cncn12)C1CCN(c2ccc3ncncc3c2)CC1 (stereo not drawn) [Example D181, (6-cyclopropylimidazo[1,5-a]pyridin-5-yl)(1-(quinazolin-6-yl)piperidin-4-yl)methanol]	–	1020	> 10	31
OC(c1cc(Cl)cc2cncn12)C1CCC(c2ccc(Cl)cc2)CC1 (stereo not drawn) [Example E101, (7-chloroimidazo[1,5-a]pyridin-5-yl)(4-(4-chlorophenyl)cyclohexyl)methanol]	–	6310	> 10	62
OC(c1cc(C2CC2)cc2cncn12)C1CCC(c2ccc(Cl)cc2)CC1 (stereo not drawn) [Example E102, (4-(4-chlorophenyl)cyclohexyl)(7-cyclopropylimidazo[1,5-a]pyridin-5-yl)methanol]	–	4840	> 10	270
OC(c1cc(Cl)cc2cncn12)C1CCC(c2cccc3ccccc23)CC1 (stereo not drawn) [Example E103, (7-chloroimidazo[1,5-a]pyridin-5-yl)(4-(naphthalen-1-yl)cyclohexyl)methanol]	–	2320	> 10	43
OC(c1cc(Cl)cc2cncn12)C1CCC(c2ccc3ccccc3c2)CC1 (stereo not drawn) [Example E104, (7-chloroimidazo[1,5-a]pyridin-5-yl)(4-(naphthalen-2-yl)cyclohexyl)methanol]	–	5440	> 10	80
